Here are results for nine molecules from article PMC6407579, “New flavonoid – N,N-dibenzyl(N-methyl)amine hybrids: Multi-target-directed agents for Alzheimer´s disease endowed with neurogenic properties” (Journal of Enzyme Inhibition and Medicinal Chemistry, 2019).

The target of data set [1] is T1, human recombinant AChE (hAChE) (Homo sapiens, UniProt P22303).
T1 construct: purchased Sigma Chemical Co
The experiment in a line: biochemical. The method, then:
The Ellman method was followed, using human recombinant AChE and BuChE from human serum. The assay solution consisted of 0.1 M phosphate buffer pH 8.0, 400 μM 5,5´-dithiobis(2-nitrobenzoic acid) (DTNB, Ellman’s reagent), 0.05 U/mL hAChE (Sigma Chemical Co.) or 0.024 U/mL hBuChE (Sigma Chemical Co.), and 800 μM acetylthiocholine iodide, or 500 μM butyrylthiocholine as the substrate of the enzymatic reaction, respectively. The compounds tested were added to the assay solution and preincubated with the enzyme for 5 min at 30 °C. After that period, the substrate was added.

A further data set has as its target T2, recombinant hMAO-A (Homo sapiens, UniProt P21397).
T2 sequence (P21397 1-527): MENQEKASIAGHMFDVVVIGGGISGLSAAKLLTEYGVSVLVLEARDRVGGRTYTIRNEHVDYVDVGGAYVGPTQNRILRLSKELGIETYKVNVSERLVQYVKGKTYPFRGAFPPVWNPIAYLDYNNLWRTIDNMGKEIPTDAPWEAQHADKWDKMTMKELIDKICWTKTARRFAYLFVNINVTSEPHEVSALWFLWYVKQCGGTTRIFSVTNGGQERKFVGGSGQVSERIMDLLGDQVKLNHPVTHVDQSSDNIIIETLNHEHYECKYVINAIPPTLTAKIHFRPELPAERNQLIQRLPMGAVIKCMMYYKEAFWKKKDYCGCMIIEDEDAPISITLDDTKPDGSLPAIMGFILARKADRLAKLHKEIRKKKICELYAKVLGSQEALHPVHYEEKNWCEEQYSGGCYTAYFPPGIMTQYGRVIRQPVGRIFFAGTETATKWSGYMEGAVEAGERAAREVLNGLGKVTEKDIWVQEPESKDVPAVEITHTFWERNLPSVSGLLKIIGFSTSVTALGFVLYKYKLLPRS
Nature of the data set: biochemical. The class given is biochemical. The following applies: mean ± SEM (n = 3); 100 µM highest concentration tested.

The target in the next data set is T3, recombinant hMAO-B (Homo sapiens, UniProt P27338).
T3 sequence (P27338 1-520): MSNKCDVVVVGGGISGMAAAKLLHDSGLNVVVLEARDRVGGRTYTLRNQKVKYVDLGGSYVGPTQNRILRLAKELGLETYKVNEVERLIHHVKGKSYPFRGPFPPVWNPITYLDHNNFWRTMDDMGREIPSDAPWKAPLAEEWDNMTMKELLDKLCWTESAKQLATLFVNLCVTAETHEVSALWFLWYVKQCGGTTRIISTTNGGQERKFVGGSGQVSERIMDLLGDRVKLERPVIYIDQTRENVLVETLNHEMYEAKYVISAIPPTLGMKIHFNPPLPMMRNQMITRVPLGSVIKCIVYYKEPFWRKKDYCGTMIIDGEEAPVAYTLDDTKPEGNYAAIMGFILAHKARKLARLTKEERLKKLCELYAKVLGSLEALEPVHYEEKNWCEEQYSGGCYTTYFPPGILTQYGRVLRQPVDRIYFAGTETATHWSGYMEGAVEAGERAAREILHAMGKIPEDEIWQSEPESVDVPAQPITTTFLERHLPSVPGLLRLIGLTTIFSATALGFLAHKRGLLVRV
Nature of the data set: biochemical. The following applies: for IC50: mean ± SEM (n = 3), 100 µM highest concentration tested. The class given is biochemical.

A short description of data set [2]: In vitro blood-brain barrier permeation assay (PAMPA-BBB). The data set is classed as in vitro ADME. The following applies: pig, pH 7.4, porcine brain lipid, PBS:ethanol (70:30), 25 °C, read-out: PAMPA-BBB permeability in the CNS (Pe). How it is done:
Prediction of the brain penetration was evaluated using a parallel artificial membrane permeation assay (PAMPA-BBB), in a similar manner as previously described[36]^,[46]^,[51–53]. Pipetting was performed with a semi-automatic pipettor (CyBi®-SELMA) and UV reading with a microplate spectrophotometer (Multiskan Spectrum, Thermo Electron Co.). Commercial drugs, phosphate buffered saline solution at pH 7.4 (PBS), and dodecane were purchased from Sigma, Aldrich, Acros, and Fluka. Millex filter units (PVDF membrane, diameter 25 mm, pore size 0.45 μm) were acquired from Millipore. The porcine brain lipid (PBL) was obtained from Avanti Polar Lipids. The donor microplate was a 96-well filter plate (PVDF membrane, pore size 0.45 μm) and the acceptor microplate was an indented 96-well plate, both from Millipore. The acceptor 96-well microplate was filled with 200 μL of PBS: ethanol (70:30) and the filter surface of the donor microplate was impregnated with 5 μL of porcine brain lipid (PBL) in dodecane (20 mg mL^−1). Compounds were dissolved in PBS: ethanol (70:30) at 100 μg mL^−1, filtered through a Millex filter, and then added to the donor wells (200 μL). The donor filter plate was carefully put on the acceptor plate to form a sandwich, which was left undisturbed for 120 min at 25 °C. After incubation, the donor plate is carefully removed and the concentration of compounds in the acceptor wells was determined by UV-Vis spectroscopy. Every sample is analysed at five wavelengths, in four wells and at least in three independent runs, and the results are given as the mean ± standard deviation. In each experiment, 11 quality control standards of known BBB permeability were included to validate and normalise the analysis set.
To check if new compounds could be able to reach their CNS-targets, we used the in vitro parallel artificial membrane permeability assay for the blood-brain barrier (PAMPA-BBB) described by Di et al.[87], and partially modified by us for testing molecules with limited water-solubility[36]^,[46]^,[51–53]. The passive CNS-permeation of new compounds 1–13 through a lipid extract of porcine brain was measured at room temperature. In each experiment, 11 commercial drugs of known brain permeability were also tested and their permeability values normalised to the reported PAMPA-BBB data. […].

A further data set concerns the target T4, hLOX-5 (Homo sapiens, UniProt P09917).
T4 sequence (P09917 1-674): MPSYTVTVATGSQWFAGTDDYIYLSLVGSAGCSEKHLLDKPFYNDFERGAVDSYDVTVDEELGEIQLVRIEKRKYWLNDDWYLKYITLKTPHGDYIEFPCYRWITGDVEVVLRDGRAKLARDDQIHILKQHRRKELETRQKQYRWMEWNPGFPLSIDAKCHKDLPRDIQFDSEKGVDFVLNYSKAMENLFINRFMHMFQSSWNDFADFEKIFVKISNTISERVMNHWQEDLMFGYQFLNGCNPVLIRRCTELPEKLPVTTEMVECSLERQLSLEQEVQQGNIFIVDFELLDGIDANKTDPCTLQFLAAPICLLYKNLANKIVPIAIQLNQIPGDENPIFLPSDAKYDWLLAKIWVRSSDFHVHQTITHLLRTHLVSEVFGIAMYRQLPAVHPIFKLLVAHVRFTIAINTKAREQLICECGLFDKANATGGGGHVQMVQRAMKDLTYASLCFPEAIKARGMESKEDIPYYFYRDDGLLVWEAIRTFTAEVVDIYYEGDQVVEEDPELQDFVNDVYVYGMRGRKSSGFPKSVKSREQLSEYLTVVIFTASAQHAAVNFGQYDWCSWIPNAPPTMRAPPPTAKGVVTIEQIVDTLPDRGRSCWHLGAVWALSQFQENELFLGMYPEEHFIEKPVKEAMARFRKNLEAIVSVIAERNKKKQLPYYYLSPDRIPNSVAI
The experiment in a line: Inhibition of human lipoxygenase-5 (fluorescence-based, Pufahl). The data set is classed as biochemical. The following applies: three independent experiments. The method, then:
The fluorescence-based enzyme method developed by Pufahl et al. was followed, in 96-well microtiter plates. The assay solution consists of Tris buffer (50 mM, pH 7.5), ethylenediaminetetraacetic acid (EDTA, 2 mM), CaCl2 (2 mM), arachidonic acid (AA, 3 μM), ATP (10 μM), 2',7'-dichlorodihydrofluorescein diacetate (H2DCFDA, 10 μM), hLOX-5 (100 mU/well), bovine glutathione peroxidase (GPx, 25 mU/well) and reduced glutathione (GSH, 1 mM). Compounds to be tested were added to the test solution prior to AA and ATP, and pre-incubated for a period of 10 min at room temperature. Then, the AA and ATP substrates were added; the enzymatic reaction allowed to progress for 20 min and ended by the addition of 40 μL of acetonitrile.
A selection of new hybrids covering different structural motifs was assayed as inhibitors of hLOX-5, followed the method described by Pufahl et al.[55].

A short description of data set [3]: Oxygen radical absorbance capacity assay (ORAC). The note with it: trolox taken as 1.0.
The mark [4] stands for this setting: mean ± SEM (n = 3), read-out: hAChE IC50.

Several values for one entry are separate records, joined by “and”; a condition that tells them apart may be missing. Equal entries are not always repeated. Where two headings read alike, the source gives them in different places. Where only a bound is given, the exact number is not on record here.

T1 sequence (P22303 32-614): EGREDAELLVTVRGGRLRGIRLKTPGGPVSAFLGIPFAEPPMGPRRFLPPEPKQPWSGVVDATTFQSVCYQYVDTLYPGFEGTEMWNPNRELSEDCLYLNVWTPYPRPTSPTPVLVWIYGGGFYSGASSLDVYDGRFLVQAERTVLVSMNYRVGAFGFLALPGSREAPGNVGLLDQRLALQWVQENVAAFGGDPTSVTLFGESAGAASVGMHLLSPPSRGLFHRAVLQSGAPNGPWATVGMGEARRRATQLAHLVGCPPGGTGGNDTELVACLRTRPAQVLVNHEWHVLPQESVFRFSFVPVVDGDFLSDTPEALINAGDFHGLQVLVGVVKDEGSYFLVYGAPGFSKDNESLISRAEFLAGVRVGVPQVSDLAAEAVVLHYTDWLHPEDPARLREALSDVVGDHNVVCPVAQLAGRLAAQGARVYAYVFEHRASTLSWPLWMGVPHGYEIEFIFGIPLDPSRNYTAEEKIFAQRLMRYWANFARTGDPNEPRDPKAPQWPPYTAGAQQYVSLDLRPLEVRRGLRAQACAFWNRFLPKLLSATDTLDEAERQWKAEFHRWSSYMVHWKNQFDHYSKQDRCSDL

For `COc1cc2[nH]c(C(=O)Nc3ccc(CN(C)Cc4ccccc4)cc3)cc(=O)c2cc1OC` [Compound 11, N-(4-((benzyl(methyl)amino)methyl)phenyl)-6,7-dimethoxy-4-oxo-1,4-dihydroquinoline-2-carboxamide], the half-inhibitory concentration (IC50) in data set [1] (hAChE IC50, mean ± SEM (n = 3)) is 4.5 ± 0.3 µM; on recombinant hMAO-A, over 100 µM; on recombinant hMAO-B, over 100 µM. Also, in data set [2], the Papp at 120 min, 100 μg mL^−1 is 19.1 ± 1.5 ×10⁻⁶ cm/s.

Consider `COc1ccc2[nH]c(C(=O)Nc3ccc(CN(C)Cc4ccccc4)cc3)cc(=O)c2c1` [Compound 8, N-(4-((Benzyl(methyl)amino)methyl)phenyl)-6-methoxy-4-oxo-1,4-dihydroquinoline-2-carboxamide], for which the IC50 in data set [1] (setting [4]) is 2.3 ± 0.1 µM; at recombinant hMAO-A, over 100 µM; on recombinant hMAO-B it was over 100 µM; on hLOX-5 (mean ± SEM, read-out: hLOX-5 IC50), over 100 µM. In addition, in data set [2], the Papp at 120 min, 100 μg mL^−1 turned out to be 24.8 ± 2 ×10⁻⁶ cm/s. In addition, the “hLOX-5 IC50” value on hLOX-5 (mean ± SEM) was “inactive”.

Consider `COc1cc(OC)c2c(=O)cc(C(=O)Nc3ccc(CN(C)Cc4ccccc4)cc3)oc2c1` [Compound 3, N-(4-((Benzyl(methyl)amino)methyl)phenyl)-5,7-dimethoxy-4-oxo-4H-chromene-2-carboxamide], for which the IC50 in data set [1] (hAChE IC50, mean ± SEM (n = 3)) was 3.2 ± 0.4 µM; at recombinant hMAO-A it was over 100 µM; on recombinant hMAO-B it was over 100 µM. In addition, the Papp at 120 min, 100 μg mL^−1 in data set [2] was 19.4 ± 1.7 ×10⁻⁶ cm/s.

Take `CN(Cc1ccccc1)Cc1ccc(NC(=O)c2cc(=O)c3cc(O)c(O)cc3[nH]2)cc1` [Compound 12, N-(4-((benzyl(methyl)amino)methyl)phenyl)-6,7-dihydroxy-4-oxo-1,4-dihydroquinoline-2-carboxamide]: the IC50 in data set [1] (hAChE IC50, mean ± SEM (n = 3)) was over 10 µM; at recombinant hMAO-A, over 100 µM; on recombinant hMAO-B, over 100 µM. Besides, the “ORAC, trolox equivalents” value in data set [3] is 0.5 mmol of trolox/mmol of tested compound and 0.5 ± 0.1 mmol of trolox/mmol of tested compound. Besides, the Papp at 120 min, 100 μg mL^−1 in data set [2] was 8.8 ± 0.7 ×10⁻⁶ cm/s.

For the molecule `COc1cc2[nH]c(C(=O)Nc3cccc(CN(C)Cc4ccccc4)c3)cc(=O)c2cc1OC` [Compound 13, N-(3-((Benzyl(methyl)amino)methyl)phenyl)-6,7-dimethoxy-4-oxo-1,4-dihydroquinoline-2-carboxamide], the 50% inhibitory concentration (IC50) is over 10 µM in data set [1] (hAChE IC50, mean ± SEM (n = 3)); over 100 µM on recombinant hMAO-A; over 100 µM on recombinant hMAO-B; 36.6 ± 3.1 µM against hLOX-5 (hLOX-5 IC50, mean ± SEM). Moreover, in data set [2], the Papp at 120 min, 100 μg mL^−1 is 15.1 ± 1.2 ×10⁻⁶ cm/s.

In the case of `COc1cccc2[nH]c(C(=O)Nc3ccc(CN(C)Cc4ccccc4)cc3)cc(=O)c12` [Compound 7, N-(4-((Benzyl(methyl)amino)methyl)phenyl)-5-methoxy-4-oxo-1,4-dihydroquinoline-2-carboxamide], the half-maximal inhibitory concentration (IC50) in data set [1] (setting [4]) is 4 ± 0.4 µM; on recombinant hMAO-A, over 100 µM; at recombinant hMAO-B, 15.2 ± 1 µM. For the same molecule, the “more active in hMAO-B than in hMAO-A” value on recombinant hMAO-B was found to be 6.6 fold. Further, the Papp at 120 min, 100 μg mL^−1 in data set [2] came to 23 ± 2.1 ×10⁻⁶ cm/s.

As to `CN(Cc1ccccc1)Cc1ccc(NC(=O)c2cc(=O)c3cc(O)ccc3[nH]2)cc1` [Compound 9, N-(4-((Benzyl(methyl)amino)methyl)phenyl)-6-hydroxy-4-oxo-1,4-dihydroquinoline-2-carboxamide], the half-maximal inhibitory concentration (IC50) is 3.1 ± 0.3 µM in data set [1] (hAChE IC50, mean ± SEM (n = 3)); over 100 µM on recombinant hMAO-A; over 100 µM on recombinant hMAO-B. Also, the “ORAC, trolox equivalents” value in data set [3] is 1.2 mmol of trolox/mmol of tested compound and 1.2 ± 0.1 mmol of trolox/mmol of tested compound. In data set [2], the Papp at 120 min, 100 μg mL^−1 is 8.4 ± 0.7 ×10⁻⁶ cm/s.

For `COc1ccc2c(=O)cc(C(=O)Nc3ccc(CN(C)Cc4ccccc4)cc3)[nH]c2c1` [Compound 10, N-(4-((Benzyl(methyl)amino)methyl)phenyl)-7-methoxy-4-oxo-1,4-dihydroquinoline-2-carboxamide], the IC50 in data set [1] (hAChE IC50, mean ± SEM (n = 3)) is 2.3 ± 0.2 µM; at recombinant hMAO-A, over 100 µM; on recombinant hMAO-B, over 100 µM; against hLOX-5 (hLOX-5 IC50, mean ± SEM), 82.8 ± 4.1 µM. Also, the Papp at 120 min, 100 μg mL^−1 in data set [2] was determined as 21.7 ± 1.9 ×10⁻⁶ cm/s.

In the case of `Cc1c(C)c2c(c(C)c1O)CCC(C)(C(=O)O)O2` (racemic) [Trolox, (±)-6-hydroxy-2,5,7,8-tetramethylchromane-2-carboxylic acid, reference compound], the “ORAC, trolox equivalents” value in data set [3] is reported as 1.0 mmol of trolox/mmol of tested compound.
